Laboratory results from patent US20080050398A1, “Composition Comprising Beta-Defensin 2” (priority 2005, published 2008).
No end group written: not given here.

Experiments:
[1] = system: Staphylococcus epidermidis; assay: Inhibition of skin microorganisms by human β-defensin 2: CFU count, reduction factor vs control; assay type: cell-based; conditions: S. epidermidis; for inhibition of the microorganism (in words): useful skin microorganism; for logarithmic decrease in the cell number (RF): 35.7 μg/ml, compared with the control
Protocol: (§1) Staphylococcus epidermidis and bacillus lichenformis were grown in LB medium under aerobic conditions at 37° C. Propionibacterium acnes was grown in TBST medium under anaerobic conditions at 37° C. The concentration of human β-defensin 2 was 35.7 μg/ml. Procedure: 18-hour cultures (S. epidermidis and B. lichenformis) or 5-day cultures (P. acnes) in LB or TBST liquid media; Measurement of the cultures at A620 nm; Adjustment in PBS [phosphate-buffered saline] to the proper A620 nm for 10^6 CFU/ml of the test strain; Microbial content checked with a dilution series in MTP brief procedure and plating; Make up stock solution of the ingredient AWK in PBS; Put 10 μl aliquots of the test strain suspension in the PCR tubes provided for AWK and control; Add to each 10 μl aliquots of AWK or PBS; Incubate aerobically at 37° C.; Determine the microbial content of the suspensions after 8 and 24 hours, with a dilution series in the MTP brief procedure and plating; Incubation of the agar plates under proper conditions for the strain; Evaluation, by visual check of the cultured agar plates, 8 or 24 hours after the start of the test; determination of the CFU and calculation of the reduction factors.

Propionibacterium acnes = assay: as above; assay type: cell-based; conditions: P. acnes; for inhibition of the microorganism (in words): harmful organism; for logarithmic decrease in the cell number (RF): 35.7 μg/ml, compared with the control
Protocol: as §1

bacillus lichenformis = assay: as above; assay type: cell-based; conditions: B. lichenformis; for inhibition of the microorganism (in words): useful skin microorganism; for logarithmic decrease in the cell number (RF): 35.7 μg/ml, compared with the control
Protocol: as §1

corolase = assay: Compatibility of surfactants with enzymes: remaining enzyme activity; assay type: biochemical; conditions: 1% SDS, within 15 minutes
Protocol: (§2) In selection of suitable surfactants, one must make sure that they are compatible with the enzymes used. It is preferable that the enzyme activity not decrease more than 50%, particularly not more than 30%, during a typical average working time of 15 minutes. Thus, tests have shown that sodium dodecyl sulfate (SDS), which is known to be a denaturant, reduces the activity of corolase to less than 30% within 15 minutes, even at a concentration of 1%, while the activity of xylanase decreases to less than 40% with only 0.1% SDS, so that surfactant is not preferred for use in the cleaning agents according to the invention. If that surfactant, or one with similar action, must nevertheless be used, one should preferably make sure of spatial separation during storage, such as by encapsulating the enzyme or by use of a multichamber bottle so that the enzyme and surfactant come into contact with each other only immediately before or during use. Alkyl polyglycosides, on the other hand, are well suited for use in enzyme-containing agents according to this invention. For instance, the activity of corolase remains clearly over 50% even with 3% APG 600, while xylanase actually experiences an increase in activity from the use of APG 600 (more than 150% activity with 0.1% surfactant) and still has more than 80% activity with 3% APG.

xylanase = assay: as above; assay type: biochemical; conditions: 0.1% SDS
Protocol: as §2

Compound | inhibition of the microorganism (in words) ([1]; listed as human β-defensin 2) | inhibition of the microorganism (in words) ([1]; listed as β-defensin 2) | logarithmic decrease in the cell number (RF) ([1]; exposure time 8 hr) | logarithmic decrease in the cell number (RF) ([1]; exposure time 24 hr) | inhibition of the microorganism (in words) (Propionibacterium acnes; listed as human β-defensin 2) | inhibition of the microorganism (in words) (Propionibacterium acnes; listed as β-defensin 2) | logarithmic decrease in the cell number (RF) (Propionibacterium acnes; exposure time 8 hr) | logarithmic decrease in the cell number (RF) (Propionibacterium acnes; exposure time 24 hr) | inhibition of the microorganism (in words) (bacillus lichenformis; listed as human β-defensin 2) | inhibition of the microorganism (in words) (bacillus lichenformis; listed as β-defensin 2) | logarithmic decrease in the cell number (RF) (bacillus lichenformis; exposure time 8 hr) | logarithmic decrease in the cell number (RF) (bacillus lichenformis; exposure time 24 hr) | activity of corolase (corolase) | activity of xylanase (xylanase)
human β-defensin 2 (GIGDPVTCLKSGAICHPVFCPRRYKQIGGCGLPGTKCCKKP; ends and bridges not checked; cysteine pairing not given here) [used as hBD2 (Sigma) in the formulations] | only slight inhibition | only a slight inhibitory effect | 0.1963 | 0.09922 | good inhibition | distinctly more strongly inhibited | 0.9586 | 1.833 | only slight inhibition | only a slight inhibitory effect | 0.09275 | 0.3716 | – | –
CCCCCCCCCCCCOS(=O)(=O)[O-].[Na+] [SDS, sodium dodecyl sulfate] | – | – | – | – | – | – | – | – | – | – | – | – | less than 30% | less than 40%
